According to patent US20100267561A1, “HERBICIDAL PYRIDAZINONE DERIVATIVES” (priority 2007, published 2010):

What was measured:
Experiment in all cases: Test C pre-/postemergence plant response
Type in all cases: in vivo
Details in all cases: Preemergence
[1] = system: green foxtail (Setaria viridis)
Description: (§1) Seeds of plant species selected from annual bluegrass (Poa annua), blackgrass (Alopecurus myosuroides), canola (Brassica rapa), downy bromegrass (Bromus tectorum), green foxtail (Setaria viridis), Italian ryegrass (Lolium multiflorum), canarygrass (Phalaris minor), pigweed (Amaranthus retroflexus), spring barley (Hordeum vulgare), spring wheat (Triticum aestivum), wild mustard (Sinapis arvensis), wild oat (Avena fatua), windgrass (Apera spica-venti), winter barley (Hordeum vulgare), and winter wheat (Triticum aestivum) were planted and treated preemergence with test chemicals formulated in a non-phytotoxic solvent mixture which included a surfactant. At the same time, plants selected from these crop and weed species were treated with postemergence applications of some of the test chemicals formulated in the same manner. Plants ranged in height from 2 to 18 cm (1- to 4-leaf stage) for postemergence treatments.
(§2) Treated plants and controls were maintained in a controlled growth environment for 15 to 25 days after which time all species were compared to controls and visually evaluated. Plant response ratings, summarized in Table C, are based on a scale of 0 to 100 where 0 is no effect and 100 is complete control. A dash (-) response means no test result.

[2] = system: Italian ryegrass (Lolium multiflorum)
Description: as §1, §2

[3] = system: annual bluegrass (Poa annua)
Description: as §1, §2

[4] = system: spring wheat (Triticum aestivum)
Description: as §1, §2

[5] = system: canarygrass (Phalaris minor)
Description: as §1, §2

wild oat (Avena fatua) = system: wild oat (Avena fatua)
Description: as §1, §2

[6] = system: wild mustard (Sinapis arvensis)
Description: as §1, §2

[7] = system: winter wheat (Triticum aestivum)
Description: as §1, §2

[8] = system: windgrass (Apera spica-venti)
Description: as §1, §2

[9] = system: spring barley (Hordeum vulgare)
Description: as §1, §2

[10] = system: pigweed (Amaranthus retroflexus)
Description: as §1, §2

[11] = system: downy bromegrass (Bromus tectorum)
Description: as §1, §2

[12] = system: blackgrass (Alopecurus myosuroides)
Description: as §1, §2

[13] = system: winter barley (Hordeum vulgare)
Description: as §1, §2

[14] = 8 g ai/ha, scale 0 to 100 (0 no effect, 100 complete control)
[15] = 16 g ai/ha, scale 0 to 100 (0 no effect, 100 complete control)
[16] = 31 g ai/ha, scale 0 to 100 (0 no effect, 100 complete control)
[17] = 62 g ai/ha, scale 0 to 100, 0 no effect, 100 complete control

`Cc1cc(-c2ccc(Cl)cc2)nn1-c1c(OS(=O)(=O)c2cccc3ccccc23)cnn(C)c1=O` [Compound 47] was tested, and the “Plant response rating, Foxtail, Green” value [1, 14] was 0, the “Plant response rating, Foxtail, Green” value [1, 15] was 15 and the “Plant response rating, Foxtail, Green” value [1, 16] was 80. The “Plant response rating, Foxtail, Green” value [1, 17] was 100, the “Plant response rating, Ryegrass, Italian” value [2, 14] was 0 and the “Plant response rating, Ryegrass, Italian” value [2, 15] was 20. The “Plant response rating, Ryegrass, Italian” value [2, 16] was 80, the “Plant response rating, Ryegrass, Italian” value [2, 17] was 100 and the “Plant response rating, Bluegrass” value [3, 14] was 0. For the same compound, the “Plant response rating, Bluegrass” value [3, 15] was 20, the “Plant response rating, Bluegrass” value [3, 16] was 50 and the “Plant response rating, Bluegrass” value [3, 17] was 50. The “Plant response rating, Wheat, Spring” value [4, 14] was 0, the “Plant response rating, Wheat, Spring” value [4, 15] was 15 and the “Plant response rating, Wheat, Spring” value [4, 16] was 25. The “Plant response rating, Wheat, Spring” value [4, 17] was 65, the “Plant response rating, Canarygrass” value [5, 14] was 0 and the “Plant response rating, Canarygrass” value [5, 15] was 0. The “Plant response rating, Canarygrass” value [5, 16] was 50, the “Plant response rating, Canarygrass” value [5, 17] was 90 and the “Plant response rating, Oat, Wild” value (wild oat (Avena fatua); [14]) was 0. The “Plant response rating, Oat, Wild” value (wild oat (Avena fatua); [15]) was 0, the “Plant response rating, Oat, Wild” value (wild oat (Avena fatua); [16]) was 75 and the “Plant response rating, Oat, Wild” value (wild oat (Avena fatua); [17]) was 80. For the same compound, the “Plant response rating, Mustard, Wild” value [6, 14] was 0, the “Plant response rating, Mustard, Wild” value [6, 15] was 0 and the “Plant response rating, Mustard, Wild” value [6, 16] was 0. For the same compound, the “Plant response rating, Mustard, Wild” value [6, 17] was 0, the “Plant response rating, Wheat, Winter” value [7, 14] was 0 and the “Plant response rating, Wheat, Winter” value [7, 15] was 20. For the same compound, the “Plant response rating, Wheat, Winter” value [7, 16] was 35, the “Plant response rating, Wheat, Winter” value [7, 17] was 65 and the “Plant response rating, Windgrass” value [8, 14] was 0. For the same compound, the “Plant response rating, Windgrass” value [8, 15] was 0, the “Plant response rating, Windgrass” value [8, 16] was 30 and the “Plant response rating, Windgrass” value [8, 17] was 65. The “Plant response rating, Barley, Spring” value [9, 14] was 10, the “Plant response rating, Barley, Spring” value [9, 15] was 20 and the “Plant response rating, Barley, Spring” value [9, 16] was 35. For the same compound, the “Plant response rating, Barley, Spring” value [9, 17] was 75, the “Plant response rating, Pigweed” value [10, 14] was 0 and the “Plant response rating, Pigweed” value [10, 15] was 0. For the same compound, the “Plant response rating, Pigweed” value [10, 16] was 0, the “Plant response rating, Pigweed” value [10, 17] was 0 and the “Plant response rating, Bromegrass, Downy” value [11, 14] was 0. The “Plant response rating, Bromegrass, Downy” value [11, 15] was 15, the “Plant response rating, Bromegrass, Downy” value [11, 16] was 35 and the “Plant response rating, Bromegrass, Downy” value [11, 17] was 35. The “Plant response rating, Blackgrass” value [12, 14] was 0, the “Plant response rating, Blackgrass” value [12, 15] was 0 and the “Plant response rating, Blackgrass” value [12, 16] was 90. The “Plant response rating, Blackgrass” value [12, 17] was 100, the “Plant response rating, Barley, Winter” value [13, 14] was 0 and the “Plant response rating, Barley, Winter” value [13, 15] was 20. The “Plant response rating, Barley, Winter” value [13, 16] was 40 and the “Plant response rating, Barley, Winter” value [13, 17] was 40.
